Results published in ChEMBL document CHEMBL1201862, “PubChem BioAssay data set” (2004).
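Method: 48-hour compound exposure of cells in 96-well plates, five concentrations, linear interpolation of endpoints. At the GI50, growth is halved.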 Calls of active or inactive are those of the source. No stated cut-off is given here; in the data, active = GI50 up to about 1.1 µM and inactive = higher.

Tests used:
Assay in all cases: growth of human tumour cells (NCI), 48 h
786-0 = system: 786-0
A498 = system: A498
A549 = system: A549
ACHN = system: ACHN
BT-549 = system: BT-549
CAKI-1 = system: CAKI-1
CCRF-CEM = system: CCRF-CEM
COLO 205 = system: COLO 205
DU-145 = system: DU-145
EKVX = system: EKVX
HCC 2998 = system: HCC 2998
HCT-116 = system: HCT-116
HCT-15 = system: HCT-15
HL-60 = system: HL-60
HOP-62 = system: HOP-62
HOP-92 = system: HOP-92
HT-29 = system: HT-29
Hs-578T = system: Hs-578T
IGROV-1 = system: IGROV-1
K562 = system: K562
KM12 = system: KM12
LOX IMVI = system: LOX IMVI
M14 = system: M14
MCF7 = system: MCF7
MDA-MB-231 = system: MDA-MB-231
MDA-MB-435 = system: MDA-MB-435
MDA-N = system: MDA-N
MOLT-4 = system: MOLT-4
Malme-3M = system: Malme-3M
NCI-H226 = system: NCI-H226
NCI-H23 = system: NCI-H23
NCI-H460 = system: NCI-H460
NCI-H522 = system: NCI-H522
NCI/ADR-RES = system: NCI/ADR-RES
OVCAR-3 = system: OVCAR-3
OVCAR-4 = system: OVCAR-4
OVCAR-5 = system: OVCAR-5
OVCAR-8 = system: OVCAR-8
PC-3 = system: PC-3
RPMI-8226 = system: RPMI-8226
RXF 393 = system: RXF 393
SF-268 = system: SF-268
SF-295 = system: SF-295
SF-539 = system: SF-539
SK-MEL-28 = system: SK-MEL-28
SK-MEL-2 = system: SK-MEL-2
SK-MEL-5 = system: SK-MEL-5
SK-OV-3 = system: SK-OV-3
SN12C = system: SN12C
SNB-19 = system: SNB-19
SNB-75 = system: SNB-75
SW-620 = system: SW-620
T47D = system: T47D
TK-10 = system: TK-10
U-251 = system: U-251
UACC-257 = system: UACC-257
UACC-62 = system: UACC-62
UO-31 = system: UO-31
SR = system: SR

For `[N-]=[N+]=NC(c1ccccc1)(c1ccccc1)c1ccccc1`, the GI50 (786-0) was 17.1 µM (inactive), the GI50 (A498) was 17.3 µM (inactive) and the GI50 (A549) was 17 µM (inactive). The GI50 (ACHN) was 15.7 µM (inactive), the GI50 (BT-549) was 19.7 µM (inactive) and the GI50 (CAKI-1) was 17.4 µM (inactive). For the same compound, the GI50 (CCRF-CEM) was 19.1 µM (inactive), the GI50 (COLO 205) was 14.6 µM (inactive) and the GI50 (DU-145) was 17.3 µM (inactive). The GI50 (EKVX) was 14.2 µM (inactive), the GI50 (HCC 2998) was 15.8 µM (inactive) and the GI50 (HCT-116) was 16 µM (inactive). The GI50 (HCT-15) was 18.1 µM, the GI50 (HL-60) was 17.2 µM (inactive) and the GI50 (HOP-62) was 19.5 µM (inactive). The GI50 (HOP-92) was 17.1 µM (inactive), the GI50 (HT-29) was 16 µM (inactive) and the GI50 (Hs-578T) was 22.8 µM (inactive). For the same compound, the GI50 (IGROV-1) was 25 µM (inactive), the GI50 (K562) was 14.8 µM (inactive) and the GI50 (KM12) was 18.2 µM (inactive). For the same compound, the GI50 (LOX IMVI) was 19.1 µM (inactive), the GI50 (M14) was 18.4 µM (inactive) and the GI50 (MCF7) was 17.5 µM (inactive). For the same compound, the GI50 (MDA-MB-231) was 16.5 µM (inactive), the GI50 (MDA-MB-435) was 19.1 µM (inactive) and the GI50 (MDA-N) was 16.4 µM (inactive). The GI50 (MOLT-4) was 16.1 µM (inactive), the GI50 (Malme-3M) was 14.6 µM (inactive) and the GI50 (NCI-H226) was 17.3 µM (inactive). For the same compound, the GI50 (NCI-H23) was 16.5 µM (inactive), the GI50 (NCI-H460) was 16.6 µM (inactive) and the GI50 (NCI-H522) was 16.5 µM (inactive). For the same compound, the GI50 (NCI/ADR-RES) was 16.7 µM (inactive), the GI50 (OVCAR-3) was 20.4 µM (inactive) and the GI50 (OVCAR-4) was 20.3 µM (inactive). For the same compound, the GI50 (OVCAR-5) was 16 µM (inactive), the GI50 (OVCAR-8) was 17.3 µM (inactive) and the GI50 (PC-3) was 15.2 µM (inactive). For the same compound, the GI50 (RPMI-8226) was 19.3 µM (inactive), the GI50 (RXF 393) was 15.7 µM (inactive) and the GI50 (SF-268) was 18.5 µM (inactive). For the same compound, the GI50 (SF-295) was 12.1 µM (inactive), the GI50 (SF-539) was 16.9 µM (inactive) and the GI50 (SK-MEL-28) was 18.4 µM (inactive). The GI50 (SK-MEL-2) was 15.5 µM (inactive), the GI50 (SK-MEL-5) was 13.8 µM (inactive) and the GI50 (SK-OV-3) was 29.4 µM (inactive). The GI50 (SN12C) was 16.7 µM (inactive), the GI50 (SNB-19) was 18.4 µM (inactive) and the GI50 (SNB-75) was 16.9 µM (inactive). For the same compound, the GI50 (SW-620) was 17.7 µM (inactive), the GI50 (T47D) was 16 µM (inactive) and the GI50 (TK-10) was 17.5 µM (inactive). The GI50 (U-251) was 15.8 µM (inactive), the GI50 (UACC-257) was 16 µM (inactive) and the GI50 (UACC-62) was 15.4 µM (inactive). The GI50 (UO-31) was 16 µM (inactive).

With `Cc1nc2ccccc2n1Cc1nnc2n1N=C(c1ccccc1)CS2` the GI50 (786-0) was 44 µM (inactive), the GI50 (A498) was 43.8 µM (inactive) and the GI50 (A549) was 36.2 µM (inactive). The GI50 (ACHN) was 47.6 µM (inactive), the GI50 (BT-549) was 32.1 µM (inactive) and the GI50 (CAKI-1) was 37.2 µM (inactive). For the same compound, the GI50 (CCRF-CEM) was 27.9 µM (inactive), the GI50 (COLO 205) was 30.1 µM (inactive) and the GI50 (DU-145) was 37.5 µM (inactive). The GI50 (EKVX) was 34.3 µM (inactive), the GI50 (HCC 2998) was 21.4 µM (inactive) and the GI50 (HCT-116) was 27.7 µM (inactive). For the same compound, the GI50 (HCT-15) was 54.8 µM, the GI50 (HL-60) was 29.2 µM (inactive) and the GI50 (HOP-62) was 47.3 µM (inactive). For the same compound, the GI50 (HT-29) was 30.5 µM (inactive), the GI50 (Hs-578T) was 38.5 µM (inactive) and the GI50 (IGROV-1) was 2.4 µM (inactive). For the same compound, the GI50 (KM12) was 31.2 µM (inactive), the GI50 (M14) was 32.8 µM (inactive) and the GI50 (MCF7) was 27.4 µM (inactive). For the same compound, the GI50 (MDA-MB-231) was 20.6 µM (inactive), the GI50 (MDA-MB-435) was 32.7 µM (inactive) and the GI50 (MDA-N) was 32.3 µM (inactive). The GI50 (MOLT-4) was 27.2 µM (inactive), the GI50 (Malme-3M) was 49.9 µM (inactive) and the GI50 (NCI-H226) was > 100 µM (inactive). The GI50 (NCI-H23) was 33.2 µM (inactive), the GI50 (NCI-H460) was 33.5 µM (inactive) and the GI50 (NCI-H522) was 22.1 µM (inactive). The GI50 (NCI/ADR-RES) was 64.1 µM (inactive), the GI50 (OVCAR-3) was 35.2 µM (inactive) and the GI50 (OVCAR-4) was 45.1 µM (inactive). The GI50 (OVCAR-5) was 53.3 µM (inactive), the GI50 (PC-3) was 16.7 µM (inactive) and the GI50 (RPMI-8226) was 17.7 µM (inactive). The GI50 (SF-268) was 40.9 µM (inactive), the GI50 (SF-295) was 43.1 µM (inactive) and the GI50 (SF-539) was 12.5 µM (inactive). For the same compound, the GI50 (SK-MEL-28) was 50.1 µM (inactive), the GI50 (SK-MEL-2) was 17 µM (inactive) and the GI50 (SK-MEL-5) was 29.2 µM (inactive). The GI50 (SK-OV-3) was > 100 µM (inactive), the GI50 (SN12C) was 36.6 µM (inactive) and the GI50 (SNB-19) was 32.1 µM (inactive). For the same compound, the GI50 (SNB-75) was 18 µM (inactive), the GI50 (SW-620) was 34.4 µM (inactive) and the GI50 (T47D) was 10.6 µM (inactive). The GI50 (TK-10) was 40.1 µM (inactive), the GI50 (U-251) was 25.1 µM (inactive) and the GI50 (UACC-257) was 22.5 µM (inactive). For the same compound, the GI50 (UACC-62) was 23.9 µM (inactive) and the GI50 (UO-31) was 38.2 µM (inactive).

With `C=C1C(=O)O[C@H]2C/C(C=O)=C\[C@H]3O[C@H]3/C(COC(=O)C(C)C)=C/CC12` (some centres not stated) the GI50 (786-0) was 2.9 µM (inactive), the GI50 (A549) was 16.9 µM (inactive) and the GI50 (ACHN) was 2.32 µM (inactive). The GI50 (BT-549) was 12.2 µM (inactive), the GI50 (CAKI-1) was 2.65 µM (inactive) and the GI50 (CCRF-CEM) was 1.83 µM (inactive). The GI50 (COLO 205) was 1.93 µM (inactive), the GI50 (DU-145) was 11.1 µM (inactive) and the GI50 (EKVX) was 16.3 µM (inactive). For the same compound, the GI50 (HCC 2998) was 13.4 µM (inactive), the GI50 (HCT-116) was 3.05 µM (inactive) and the GI50 (HCT-15) was 3.3 µM. The GI50 (HL-60) was 2.11 µM (inactive), the GI50 (HOP-62) was 13.6 µM (inactive) and the GI50 (HT-29) was 3.07 µM (inactive). For the same compound, the GI50 (Hs-578T) was 2.89 µM (inactive), the GI50 (IGROV-1) was 4.65 µM (inactive) and the GI50 (K562) was 2.9 µM (inactive). For the same compound, the GI50 (KM12) was 5.46 µM (inactive), the GI50 (LOX IMVI) was 3.21 µM (inactive) and the GI50 (MCF7) was 5.21 µM (inactive). The GI50 (MDA-MB-231) was 3.89 µM (inactive), the GI50 (MDA-MB-435) was 4.25 µM (inactive) and the GI50 (MDA-N) was 2.91 µM (inactive). The GI50 (MOLT-4) was 3.06 µM (inactive), the GI50 (Malme-3M) was 10.3 µM (inactive) and the GI50 (NCI-H226) was 21.4 µM (inactive). The GI50 (NCI-H23) was 4.97 µM (inactive), the GI50 (NCI-H460) was 10.5 µM (inactive) and the GI50 (NCI-H522) was 3.39 µM (inactive). The GI50 (NCI/ADR-RES) was 6.34 µM (inactive), the GI50 (OVCAR-3) was 6.49 µM (inactive) and the GI50 (OVCAR-5) was 2.01 µM (inactive). The GI50 (OVCAR-8) was 3.14 µM (inactive), the GI50 (PC-3) was 1.85 µM (inactive) and the GI50 (RPMI-8226) was 2.52 µM (inactive). The GI50 (RXF 393) was 3.49 µM (inactive), the GI50 (SF-295) was 25.6 µM (inactive) and the GI50 (SF-539) was 21.5 µM (inactive). For the same compound, the GI50 (SK-MEL-28) was 3.3 µM (inactive), the GI50 (SK-MEL-5) was 9.42 µM (inactive) and the GI50 (SN12C) was 2.54 µM (inactive). The GI50 (SNB-19) was 15.8 µM (inactive), the GI50 (SR) was 2.3 µM (inactive) and the GI50 (SW-620) was 2.52 µM (inactive). For the same compound, the GI50 (T47D) was 3.54 µM (inactive), the GI50 (TK-10) was 11.8 µM (inactive) and the GI50 (U-251) was 7.26 µM (inactive). For the same compound, the GI50 (UACC-257) was 11.1 µM (inactive), the GI50 (UACC-62) was 2.2 µM (inactive) and the GI50 (UO-31) was 5.58 µM (inactive).
